Results reported in patent publication US11320428B2, “Probe for dual-mode bio-imaging” (THE HONG KONG UNIVERSITY OF SCIENCE AND TECHNOLOGY, priority 2017, dated 2022).

Experiments:
HeLa cells [1] = assay: Cell viability / cytotoxicity evaluated by MTT assay; assay type: cell-based
Method: For cell culturing, HeLa cells were cultured in the MEM containing 10% FBS and antibiotics (100 units/mL penicillin and 100 µg/mL streptomycin) in a humidity incubator with an atmosphere of 5% CO2 at 37° C. and subcultured every 2-3 days.
For cell viability evaluated by MTT assay, cells were seeded in 96-well plates at a density of 10000 cells per well. After 24 h incubation, medium in each well was replaced by 100 μL fresh medium containing different concentrations of AIE-SRS-Mito. After 24 hours of treatment, into each well, 10 μL MTT solution (5 mg/mL in PBS) was added. After 4 hours of incubation, the MTT-containing solution was gently removed and replaced with 100 μL of DMSO. After agitation, the absorption of each well at 490 nm was recorded via a plate reader (Perkin-Elmer Victor3™). Each of the experiments were performed for 6 wells parallel. The background of the blank was subtracted and the cell viability of the control group was set to unity.
Cell cytotoxicity was evaluated by MTT assay (FIG. 4E). HeLa cells were incubated with different concentrations of AIE-SRS-Mito for 24 hours. For example, HeLa cells were incubated with different concentrations of AIE-SRS-Mito for 20 or 40 min and then the medium was replaced with fresh medium, followed by further incubation for 24 hours.

HeLa cells [2] = assay: Fluorescence cell imaging and co-localization with Mitotracker Red FM; assay type: cell-based; settings: 20 min
Method: For cell imaging, HeLa cells were grown overnight on a 35-mm petri dish with a cover slip. The cover slip was mounted to an iron slide with observation window. The staining solution was prepared by adding the dye stock solution (10 mM in DMSO) in to 2 mL of cell medium. Before imaging, the cells were stained with 2 mL of dye solution for a certain time and then imaged under an FL microscope (BX41 upright Microscope) using different combinations of excitation and emission filters for each dye.
To verify the mitochondrial specificity of AIE-SRS-Mito, cellular imaging was first conducted by incubating HeLa cells with 5 μM AIE-SRS-Mito for 20 min.
A co-localization experiment was then conducted using AIE-SRS-Mito and a commercial mitochondrial probe, Mitotacker Red (MTR) FM. The excitation wavelength was 330-385 nm for AIE-SRS-Mito and 540-580 nm for MTR. As shown in FIGS. 4A-4D, AIE-SRS-Mito stained the linear reticulum-like structures in cells with high contrast.

HeLa cells [3] = assay: FL-SRS imaging: intracellular dye concentration from SRS intensity (ISRS=0.1567c); assay type: cell-based; settings: for percentage of high concentration region (>0.5 mM) / ultimate high concentration within the cells: 20 μM; for ultimate high concentration within the cells: covering >99.5% cell area
Description: To eliminate the influence of light reflection and scattering on the baseline, SRS intensity ION at 2223 cm^−1 (resonance-on) and IOFF at 2160 cm^−1 (resonance-off) was used to calculate the SRS signal intensity ISRS=ION−IOFF. After subtracting the intrinsic ISRS=0.042 V in pure DMSO (background), a linear relationship between SRS intensity ISRS and the dye concentration c was obtained as ISRS=0.1567c with R^2=0.99944 in the plot shown in FIG. 5B. The analytical detection limit and quantification limit were calculated to be 8.5 μM and 28.4 μM, respectively, indicating the high sensitivity of the SRS system. Further, the SRS spectra of AIE-SRS-Mito were collected at different concentrations in DMSO and no obvious shifts in the peak position was found, indicating the inertness of Raman signal to the concentration change. Due to the inert response of SRS signal to the change of environment, the linear plot of ISRS=0.1567c can act further as a calibration for the intracellular dye concentration by keeping the same signal collecting condition.
At first, as shown in FIGS. 9A-9D, images of HeLa cells were collected by TPEF and SRS signals, respectively, and the merged image indicated a perfect co-localization of the intracellular distribution of the fluorescence and SRS signals, confirming the dual-modality of the probe. […] Due to the inertness of SRS signal and the linear relationship (ISRS=0.1567 c), the distribution of the dye concentration inside a single cell was further analyzed.
To examine the influence of intracellular concentration of AIE-SRS-Mito on the cells, attempts were made to increase the amounts of dye in the cells by increasing the incubation time. As shown in FIGS. 11A-11F, with the extension of incubation time, both the TPEF and SRS intensity were increased with a reduced mitochondrial selectivity. […] This can be attributed to the fact that the high concentration of cationic dyes in the mitochondria matrix will cause depolarization and increase the osmotic stress of the mitochondria, consequently leading to cell death as indicated by the results of the MTT assay (FIG. 4E). Similar results were found when increasing the dye concentration (FIGS. 12A-12F).
To further study acceptable intracellular concentrations of the dye molecules in a cell, the distribution of the dye concentration for cells was plotted. The percentages of high concentration region (>0.5 mM) were calculated to be 16.7%, 23.9% and 30.0% for the cells incubated with 20 μM of AIE-SRS-Mito for 30, 60 and 105 min, respectively. The ultimate high concentration within the cells was estimated to be 1.5, 2.0, 3.0 mM, respectively, covering >99.5% cell area. […] Such a high concentration is enough to cause the quenching of Rhodamine 123 in cells.

[4] = Behaviour in DMSO-water mixtures (solubility in water); assay type: physicochemical; settings: aggregation/precipitation above 70 vol % water, 10 μM
Description: Then AIE-SRS-Mito was studied in DMSO-water mixtures with different water fractions. As shown in FIGS. 1C-1D, the emission peak intensity was decreased with the increase of water fraction from 0 to 70 vol % due the quenching effect of the highly polar water. […] This is a typical AIE phenomenon, as the free intramolecular rotations of the excited molecules were restricted upon aggregation, thus blocking the non-radiative decays and favoring the radiative decay. Only a slight red-shift in peak wavelength was observed and this should be attributed to the increased solution polarity by increasing water fraction. The AIE feature and TICT effect upon excitation were further verified by the theoretical calculations (FIGS. 2A-2C).

HeLa cells [5] = assay: SRS imaging in live cells; assay type: cell-based; settings: 5 μM for 60 min, staining much shorter than EdU
Method: SRS imaging was conducted with live HeLa cells to validate a newly built SRS imaging system. The DNA of HeLa cells were pre-labeled with EdU by incubation with 100 μM of EdU in culture medium for 22 hours to ensure sufficient cell-uptake. FIGS. 7A-7D show the distributions of protein, lipid, cytochrome c and DNA in HeLa cells at 2950 cm^−1, 2845 cm^−1, 752 cm^−1, and 2125 cm^−1, respectively.
Due to the high Raman signal (RIE=6) and mitochondria targeting of AIE-SRS-Mito, AIE-SRS-Mito can serve as a mitochondrial probe for Raman microscopy. In previous reports, cytochrome c, an endogenous protein abundant in the mitochondria membrane, was used for visualization of the mitochondria. However, compared to the unclear and low-contrast image of mitochondria by cytochrome c (752 cm^−1, FIG. 7C), the SRS image of mitochondria in HeLa cells were obtained at 2223 cm^−1 with much more clear reticulum-like structures after incubated with 5 μM of AIE-SRS-Mito for 60 min (FIGS. 8A and 8C). Meanwhile, the nuclei of the Hela cells were prelabeled with EdU and imaged at 2125 cm^−1 (FIGS. 8B and 8D).

## CC[n+]1ccc(-c2ccc(/C(C#N)=C/c3ccc(C#Cc4ccccc4)cc3)cc2)cc1 [AIE-SRS-Mito]
HeLa cells [1]; Homo sapiens, incubation for 24 hours, concentrations 0 to 40 μM, FIG. 4E, read-out: half maximal inhibitory concentration (IC50) of cell viability
  IC50: ~7 µM
HeLa cells [1]; treatment with <40 μM for <40 min, then fresh medium and further 24 hours
  cell viability: over 70%
HeLa cells [2]; HeLa cells co-stained, 5 μM probe and 100 nM MTR
  mitochondrial selectivity (overlap with Mitotracker Red FM fluorescence): good mitochondrial selectivity
HeLa cells [2]; HeLa cells, 5 μM, fluorescence imaging, compared to synthetic precursors
  cell permeability: good cell permeability
HeLa cells [3]; HeLa cells, with moderate cell viability
  dye concentration in mitochondria matrix tolerated by cells: up to 3.0 mM
HeLa cells [3]; HeLa, 30 min
  percentage of high concentration region (>0.5 mM): 16.7%
  ultimate high concentration within the cells: 1.5 mM
HeLa cells [3]; HeLa, 60 min
  percentage of high concentration region (>0.5 mM): 23.9%
  ultimate high concentration within the cells: 2.0 mM
HeLa cells [3]; HeLa, 105 min
  percentage of high concentration region (>0.5 mM): 30.0%
  ultimate high concentration within the cells: 3.0 mM
HeLa cells [3]; HeLa, incubation concentration 20 μM, 30 min
  local concentration relative to incubation concentration: 75 folds
HeLa cells [3]; single HeLa cell, 20 μM for 30 min, FIG. 10D
  local concentration within a cell: up to 1.5 mM
[4]
  solubility in water: poor solubility
HeLa cells [5]
  cell permeability: good cell permeability
